Laboratory results as given in the supplement of paper PMC10307832.

Key:
Test in all cases: relative viability (nuclei count vs DMSO), 5 days (fraction); higher = more cells survive
IPA-3 + Lapatinib = compound: C1=CC=C2C(=C1)C=CC(=C2SSC3=C(C=CC4=CC=CC=C43)O)O [IPA-3] + CS(=O)(=O)CCNCc1ccc(-c2ccc3ncnc(Nc4ccc(OCc5cccc(F)c5)c(Cl)c4)c3c2)o1 [Lapatinib] (partner 2 µM)
Summary of the method: (§1)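 Lung cancer cell lines in 1536-well plates were dosed by pin tool the day after seeding, either with one drug alone or with a fixed anchor-drug dose plus five library-drug doses (not always all listed) in √10 steps. After 5 days, cells were fixed and their nuclei stained in one step (final 0.05% Triton X-100, 1% formaldehyde, 1 ug/ml Hoechst), then counted on 4× images. Relative viability is the nuclei count in treated wells divided by that in vehicle wells. Values are medians of duplicate plates.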

IPA-3 + Pictilisib = compound: C1=CC=C2C(=C1)C=CC(=C2SSC3=C(C=CC4=CC=CC=C43)O)O [IPA-3] + CS(=O)(=O)N1CCN(Cc2cc3nc(-c4cccc5[nH]ncc45)nc(N4CCOCC4)c3s2)CC1 [Pictilisib] (partner 1 µM)
Summary of the method: as §1

RAF265 + Pictilisib = compound: Cn1c(Nc2ccc(C(F)(F)F)cc2)nc2cc(Oc3ccnc(-c4ncc(C(F)(F)F)[nH]4)c3)ccc21 [RAF265] + CS(=O)(=O)N1CCN(Cc2cc3nc(-c4cccc5[nH]ncc45)nc(N4CCOCC4)c3s2)CC1 [Pictilisib] (partner 1 µM)
Summary of the method: as §1

RAF265 + Decitabine = compound: Cn1c(Nc2ccc(C(F)(F)F)cc2)nc2cc(Oc3ccnc(-c4ncc(C(F)(F)F)[nH]4)c3)ccc21 [RAF265] + Nc1ncn([C@H]2C[C@H](O)[C@@H](CO)O2)c(=O)n1 [Decitabine] (partner 2 µM)
Summary of the method: as §1

| Cell Line | relative viability (IPA-3 + Lapatinib; first compound 0.2 µM) | relative viability (IPA-3 + Lapatinib; first compound 0.6325 µM) | relative viability (IPA-3 + Lapatinib; first compound 2 µM) | relative viability (IPA-3 + Lapatinib; first compound 6.325 µM) | relative viability (IPA-3 + Lapatinib; first compound 20 µM) | relative viability (IPA-3 + Pictilisib; first compound 0.2 µM) | relative viability (IPA-3 + Pictilisib; first compound 0.6325 µM) | relative viability (IPA-3 + Pictilisib; first compound 2 µM) | relative viability (IPA-3 + Pictilisib; first compound 6.325 µM) | relative viability (IPA-3 + Pictilisib; first compound 20 µM) | relative viability (RAF265 + Pictilisib; first compound 0.01 µM) | relative viability (RAF265 + Pictilisib; first compound 0.03162 µM) | relative viability (RAF265 + Pictilisib; first compound 0.1 µM) | relative viability (RAF265 + Pictilisib; first compound 0.3162 µM) | relative viability (RAF265 + Pictilisib; first compound 1 µM) | relative viability (RAF265 + Decitabine; first compound 0.01 µM) | relative viability (RAF265 + Decitabine; first compound 0.03162 µM) | relative viability (RAF265 + Decitabine; first compound 0.1 µM) | relative viability (RAF265 + Decitabine; first compound 0.3162 µM) | relative viability (RAF265 + Decitabine; first compound 1 µM) |
| --- | --- | --- | --- | --- | --- | --- | --- | --- | --- | --- | --- | --- | --- | --- | --- | --- | --- | --- | --- | --- |
| NCI-H2009 | 1.2 | 0.899 | 0.832 | 0.853 | 0.577 | 0.889 | 0.726 | 0.784 | 0.83 | 0.57 | 0.884 | 0.539 | 0.444 | 0.438 | 0.288 | 0.43 | 0.376 | 0.377 | 0.459 | 0.335 |
| NCI-H2023 | 0.91 | 0.711 | 0.774 | 0.925 | 0.832 | 0.275 | 0.243 | 0.248 | 0.301 | 0.258 | 0.243 | 0.212 | 0.272 | 0.152 | 0.214 | 0.26 | 0.208 | 0.198 | 0.215 | 0.176 |
| NCI-H2085 | 0.931 | 0.723 | 0.741 | 0.712 | 0.825 | 0.44 | 0.44 | 0.447 | 0.426 | 0.535 | 0.407 | 0.478 | 0.502 | 0.437 | 0.368 | 0.547 | 0.506 | 0.571 | 0.587 | 0.59 |
| NCI-H2087 | 0.832 | 0.987 | 0.982 | 1.06 | 0.811 | 0.891 | 0.784 | 0.894 | 0.936 | 1.01 | 0.96 | 0.907 | 0.884 | 0.46 | 0.372 | 0.287 | 0.257 | 0.251 | 0.188 | 0.147 |
| NCI-H2126 | 0.792 | 0.76 | 0.771 | 0.75 | 0.792 | 0.48 | 0.505 | 0.449 | 0.503 | 0.512 | 0.5 | 0.491 | 0.491 | 0.405 | 0.415 | 0.607 | 0.56 | 0.563 | 0.573 | 0.412 |
| NCI-H2170 | 0.269 | 0.259 | 0.274 | 0.274 | 0.267 | 0.324 | 0.302 | 0.303 | 0.303 | 0.346 | 0.34 | 0.283 | 0.287 | 0.214 | 0.239 | 0.482 | 0.439 | 0.499 | 0.366 | 0.386 |
| NCI-H2347 | 1.08 | 0.938 | 0.99 | 0.945 | 0.935 | 0.423 | 0.644 | 0.522 | 0.717 | 0.605 | 0.789 | 0.952 | 0.652 | 0.629 | 0.245 | 0.676 | 0.561 | 0.574 | 0.526 | 0.382 |
| NCI-H2405 | 1.15 | 1 | 0.921 | 1.17 | 1.16 | 0.458 | 0.382 | 0.354 | 0.519 | 0.416 | 0.529 | 0.473 | 0.397 | 0.368 | 0.231 | 0.825 | 0.776 | 0.727 | 0.607 | 0.448 |
| NCI-H3122 | 1.02 | 0.996 | 0.993 | 1.09 | 0.946 | 0.612 | 0.566 | 0.559 | 0.697 | 0.594 | 0.586 | 0.831 | 0.575 | 0.452 | 0.301 | 0.408 | 0.379 | 0.429 | 0.304 | 0.29 |
| PC-3 [JPC-3] | 0.494 | 0.467 | 0.422 | 0.504 | 0.457 | 0.863 | 0.774 | 0.696 | 0.668 | 0.772 | 0.686 | 0.676 | 0.727 | 0.333 | 0.417 | 0.924 | 0.785 | 0.831 | 0.488 | 0.655 |
| PC-14 | 0.419 | 0.331 | 0.328 | 0.328 | 0.407 | 1.1 | 0.562 | 0.804 | 0.678 | 1.19 | 0.737 | – | 0.733 | – | 0.312 | 0.24 | 0.204 | 0.231 | 0.163 | 0.226 |
| RERF-LC-KJ | 1 | 0.828 | 0.764 | 0.801 | 0.897 | 0.626 | 0.501 | 0.537 | 0.38 | 0.486 | 0.49 | 0.236 | 0.545 | 0.42 | 0.23 | 0.815 | 0.616 | 0.669 | 0.583 | 0.527 |
| SK-LU-1 | 1.18 | 0.744 | 1.01 | 0.756 | 0.692 | 0.617 | 0.612 | 0.579 | 0.712 | 0.645 | 0.688 | 0.422 | 0.41 | 0.297 | 0.27 | 0.847 | 0.597 | 0.508 | 0.569 | 0.414 |
| SK-MES-1 | 0.524 | 0.431 | 0.487 | 0.423 | 0.449 | 0.415 | 0.357 | 0.321 | 0.34 | 0.403 | 0.311 | 0.301 | 0.218 | 0.214 | 0.141 | 0.383 | 0.295 | 0.3 | 0.231 | 0.221 |
| SW 1573 | 1.17 | 1.09 | 1.03 | 1.06 | 1.06 | 0.593 | 0.503 | 0.6 | 0.479 | 0.61 | 0.597 | 0.445 | 0.542 | 0.399 | 0.221 | 0.675 | 0.406 | 0.4 | 0.325 | 0.244 |
